Nine compounds from patent US10538554B2, “Peptides and uses therefor as antiviral agents” (priority 2015, dated 2020) can be followed below.

Bridge positions count the residues as written; N and C are the ends. Square brackets hold non-standard residues; d marks the D form. Peptide text beside a SMILES is read from it.

One experiment concerns H9N2 A/Iran/16/2000. Conditions: 48 h, 50 μM.
Another experiment relates to H3N2 A/HK/8/1968. Conditions: A/HK/8/1968, 48 h, 50 μM.
A further experiment concerns H3N8 A/Miami/2/63. The settings on record: A/Miami/2/63, 48 h, 50 μM.
In experiment [1] the test system is H1N1 A1/Malaysia/302/1954. Conditions: A1/Malaysia/302/1954, 48 h, 50 μM.

Take `CC[C@@H](C)[C@H]1NC(=O)[C@@H](Cc2ccccc2)NC(=O)[C@@H](CCCNC(=N)N)NC(=O)[C@@H](CS)NC(=O)[C@@H](Cc2c[nH]c3ccccc23)NC(=O)[C@@H]([C@H](C)O)NC(=O)[C@H](NC(=O)[C@H](CCCCN)NC(=O)[C@H](CCCCN)NC(=O)[C@H](CCCNC(=N)N)NC(=O)[C@@H](N)CCCNC(=N)N)CSSC[C@H](C(=O)O)NC(=O)[C@@H](CC(N)=O)NC1=O` [PSP III B2, H-RRKKctwcrfinc-OH] (H-RRKK[dC][dT][dW][dC][dR][dF][dI][dN][dC]-OH; disulfide 5-13): the “% inhibition H9N2” value in the experiment on H9N2 A/Iran/16/2000 was 74%. Further, in the experiment with H3N2 A/HK/8/1968, the “% inhibition H3N2” value turned out to be 96%. For the same compound, in the experiment with H3N8 A/Miami/2/63, the “% inhibition H3N8” value is given as 87%. In experiment [1], the “% inhibition H1N1” value was 71%.
The corresponding values for `CC[C@@H](C)[C@H]1NC(=O)[C@@H](Cc2ccccc2)NC(=O)[C@@H](CCCNC(=N)N)NC(=O)[C@@H](CC(=O)O)NC(=O)[C@@H](Cc2c[nH]c3ccccc23)NC(=O)[C@@H]([C@H](C)O)NC(=O)[C@H](NC(=O)[C@H](CCCCN)NC(=O)[C@H](CCCCN)NC(=O)[C@H](CCCNC(=N)N)NC(=O)[C@@H](N)CCCNC(=N)N)CSSC[C@H](C(=O)O)NC(=O)[C@@H](CC(N)=O)NC1=O` [PSP III B3, H-RRKKctwdrfinc-OH] (H-RRKK[dC][dT][dW][dD][dR][dF][dI][dN][dC]-OH; disulfide 5-13) are 20%, 83%, 43% and 12%.
In the case of `CC[C@@H](C)[C@H]1NC(=O)[C@@H](Cc2ccccc2)NC(=O)[C@@H](CCCNC(=N)N)NC(=O)[C@@H](CCC(=O)O)NC(=O)[C@@H](Cc2c[nH]c3ccccc23)NC(=O)[C@@H]([C@H](C)O)NC(=O)[C@H](NC(=O)[C@H](CCCCN)NC(=O)[C@H](CCCCN)NC(=O)[C@H](CCCNC(=N)N)NC(=O)[C@@H](N)CCCNC(=N)N)CSSC[C@H](C(=O)O)NC(=O)[C@@H](CC(N)=O)NC1=O` [PSP III B4, H-RRKKctwerfinc-OH] (H-RRKK[dC][dT][dW][dE][dR][dF][dI][dN][dC]-OH; disulfide 5-13), in the experiment on H9N2 A/Iran/16/2000, the “% inhibition H9N2” value stood at 86%. Also, the “% inhibition H3N2” value in the experiment on H3N2 A/HK/8/1968 is reported as 100%. Moreover, in the experiment with H3N8 A/Miami/2/63, the “% inhibition H3N8” value came to 91%. In experiment [1], the “% inhibition H1N1” value amounted to 81%.
In the case of `CC[C@@H](C)[C@H]1NC(=O)[C@@H](Cc2ccccc2)NC(=O)[C@@H](CCCNC(=N)N)NC(=O)CNC(=O)[C@@H](Cc2c[nH]c3ccccc23)NC(=O)[C@@H]([C@H](C)O)NC(=O)[C@H](NC(=O)[C@H](CCCCN)NC(=O)[C@H](CCCCN)NC(=O)[C@H](CCCNC(=N)N)NC(=O)[C@@H](N)CCCNC(=N)N)CSSC[C@H](C(=O)O)NC(=O)[C@@H](CC(N)=O)NC1=O` [PSP III B6, H-RRKKctwGrfinc-OH] (H-RRKK[dC][dT][dW]G[dR][dF][dI][dN][dC]-OH; disulfide 5-13), the “% inhibition H9N2” value in the experiment with H9N2 A/Iran/16/2000 came to 93%. Moreover, the “% inhibition H3N2” value with H3N2 A/HK/8/1968 stood at 100%. In the experiment on H3N8 A/Miami/2/63, the “% inhibition H3N8” value is on record as 96%. For the same compound, in experiment [1], the “% inhibition H1N1” value is 85%.
As for `CC[C@@H](C)[C@H]1NC(=O)[C@@H](Cc2ccccc2)NC(=O)[C@@H](CCCNC(=N)N)NC(=O)[C@@H]([C@H](C)CC)NC(=O)[C@@H](Cc2c[nH]c3ccccc23)NC(=O)[C@@H]([C@H](C)O)NC(=O)[C@H](NC(=O)[C@H](CCCCN)NC(=O)[C@H](CCCCN)NC(=O)[C@H](CCCNC(=N)N)NC(=O)[C@@H](N)CCCNC(=N)N)CSSC[C@H](C(=O)O)NC(=O)[C@@H](CC(N)=O)NC1=O` [PSP III B8, H-RRKKctwirfinc-OH] (H-RRKK[dC][dT][dW][dI][dR][dF][dI][dN][dC]-OH; disulfide 5-13), the “% inhibition H9N2” value in the experiment with H9N2 A/Iran/16/2000 worked out at 81%. Besides, the “% inhibition H3N2” value in the experiment on H3N2 A/HK/8/1968 worked out at 100%. Further, in the experiment with H3N8 A/Miami/2/63, the “% inhibition H3N8” value was 91%. Also, in experiment [1], the “% inhibition H1N1” value was found to be 88%.
As to `CC[C@@H](C)[C@H]1NC(=O)[C@@H](Cc2ccccc2)NC(=O)[C@@H](CCCNC(=N)N)NC(=O)[C@@H](CCCCN)NC(=O)[C@@H](Cc2c[nH]c3ccccc23)NC(=O)[C@@H]([C@H](C)O)NC(=O)[C@H](NC(=O)[C@H](CCCCN)NC(=O)[C@H](CCCCN)NC(=O)[C@H](CCCNC(=N)N)NC(=O)[C@@H](N)CCCNC(=N)N)CSSC[C@H](C(=O)O)NC(=O)[C@@H](CC(N)=O)NC1=O` [PSP III B9, H-RRKKctwkrfinc-OH] (H-RRKK[dC][dT][dW][dK][dR][dF][dI][dN][dC]-OH; disulfide 5-13), in the experiment with H9N2 A/Iran/16/2000, the “% inhibition H9N2” value stood at 90%. Also, in the experiment on H3N2 A/HK/8/1968, the “% inhibition H3N2” value is 96%. Besides, the “% inhibition H3N8” value with H3N8 A/Miami/2/63 is recorded as 96%. Besides, in experiment [1], the “% inhibition H1N1” value is 90%.
Consider `CC[C@@H](C)[C@H]1NC(=O)[C@@H](Cc2ccccc2)NC(=O)[C@@H](CCCNC(=N)N)NC(=O)[C@@H](CC(C)C)NC(=O)[C@@H](Cc2c[nH]c3ccccc23)NC(=O)[C@@H]([C@H](C)O)NC(=O)[C@H](NC(=O)[C@H](CCCCN)NC(=O)[C@H](CCCCN)NC(=O)[C@H](CCCNC(=N)N)NC(=O)[C@@H](N)CCCNC(=N)N)CSSC[C@H](C(=O)O)NC(=O)[C@@H](CC(N)=O)NC1=O` [PSP III B10, H-RRKKctwlrfinc-OH] (H-RRKK[dC][dT][dW][dL][dR][dF][dI][dN][dC]-OH; disulfide 5-13), for which the “% inhibition H9N2” value in the experiment with H9N2 A/Iran/16/2000 is given as 90%. For the same compound, the “% inhibition H3N2” value with H3N2 A/HK/8/1968 was determined as 100%. Also, the “% inhibition H3N8” value in the experiment on H3N8 A/Miami/2/63 is 96%. In experiment [1], the “% inhibition H1N1” value is recorded as 92%.
The corresponding values for `CC[C@@H](C)[C@H]1NC(=O)[C@@H](Cc2ccccc2)NC(=O)[C@@H](CCCNC(=N)N)NC(=O)[C@@H](CCSC)NC(=O)[C@@H](Cc2c[nH]c3ccccc23)NC(=O)[C@@H]([C@H](C)O)NC(=O)[C@H](NC(=O)[C@H](CCCCN)NC(=O)[C@H](CCCCN)NC(=O)[C@H](CCCNC(=N)N)NC(=O)[C@@H](N)CCCNC(=N)N)CSSC[C@H](C(=O)O)NC(=O)[C@@H](CC(N)=O)NC1=O` [PSP III B11, H-RRKKctwmrfinc-OH] (H-RRKK[dC][dT][dW][dM][dR][dF][dI][dN][dC]-OH; disulfide 5-13) are 93%, 100%, 96% and 94%.
Consider `CC[C@@H](C)[C@H]1NC(=O)[C@@H](Cc2ccccc2)NC(=O)[C@@H](CCCNC(=N)N)NC(=O)[C@@H](CC(N)=O)NC(=O)[C@@H](Cc2c[nH]c3ccccc23)NC(=O)[C@@H]([C@H](C)O)NC(=O)[C@H](NC(=O)[C@H](CCCCN)NC(=O)[C@H](CCCCN)NC(=O)[C@H](CCCNC(=N)N)NC(=O)[C@@H](N)CCCNC(=N)N)CSSC[C@H](C(=O)O)NC(=O)[C@@H](CC(N)=O)NC1=O` [PSP III B12, H-RRKKctwnrfinc-OH] (H-RRKK[dC][dT][dW][dN][dR][dF][dI][dN][dC]-OH; disulfide 5-13), for which the “% inhibition H9N2” value in the experiment with H9N2 A/Iran/16/2000 turned out to be 83%. Also, in the experiment with H3N2 A/HK/8/1968, the “% inhibition H3N2” value was 100%. Moreover, the “% inhibition H3N8” value with H3N8 A/Miami/2/63 is recorded as 87%. The “% inhibition H1N1” value in experiment [1] worked out at 75%.
